Experimental data: ChEMBL document CHEMBL1129905, “Benzothiadiazine dioxide acyclonucleosides as lead compounds for the development of new agents against human cytomegalovirus and varicella-zoster virus infections” (Bioorg Med Chem Lett, 1997)
Converted amounts (≈) assume the structure as drawn.

Key:
[1] = tested on: HeLa; test: (§1) Cytotoxic activity was measured in human […] cells (HeLa); assay type: functional
[2] = tested on: HeLa; test: as §1; assay type: functional; remark: listed apart in the source
[3] = tested on: HEL; test: Antiviral activity was measured against cytomegalovirus (CMV) AD-169 strain in human embryonic lung (HEL) cells; assay type: functional, cell-based
[4] = tested on: HEL; test: Antiviral activity was measured against cytomegalovirus (CMV) Davis strain in human embryonic lung (HEL) cells; assay type: functional, cell-based
[5] = tested on: HEL; test: Antiviral activity was measured against Varicella-Zoster virus (VZV) 07/1 strain in human embryonic lung (HEL) cells; assay type: functional, cell-based
[6] = tested on: HEL; test: Antiviral activity was measured against Varicella-Zoster virus (VZV) YS/R strain in human embryonic lung (HEL) cells; assay type: functional, cell-based
[7] = tested on: Human immunodeficiency virus 1; test: Tested for its ability to inhibit replication of HIV-1 in MT-4 cells, activity expressed as IC50.; assay type: functional; details: Human immunodeficiency virus 1, MT4
[8] = tested on: MT4; test: The potential anti-HIV activity was evaluated against HIV-1 IIIb strain in MT-4 cells; assay type: functional, cell-based; details: Homo sapiens
[9] = tested on: MT4; test: The potential anti-HIV activity was evaluated against HIV-2 ROD strain in MT-4 cells; assay type: functional, cell-based; details: Homo sapiens
[10] = Cytotoxic activity was measured in human embryonic lung cells(HeLa); assay type: functional

SMILES | CC50 [1] [µg/mL] | CC50 [2] [µg/mL] | IC50 [3] [µg/mL] | IC50 [4] [µg/mL] | IC50 [5] [µg/mL] | IC50 [6] [µg/mL] | IC50 [7] [µg/mL] | IC50 [8] [µg/mL] | IC50 [9] [µg/mL] | CC50 [10] [µg/mL]
O=C1c2ccccc2N(Cc2ccccc2)S(=O)(=O)N1COCc1ccccc1 | > 50 | > 50 | 3.6 (≈ 8.81 µM) | 3.6 (≈ 8.81 µM) | > 5 | 3 (≈ 7.34 µM) | 3.7 (≈ 9.06 µM) | 3.7 (≈ 9.06 µM) | > 99 | > 125
Nc1nc2c(ncn2COCCO)c(=O)[nH]1 [ACYCLOVIR] | 200 (≈ 888 µM) |  |  |  |  |  |  |  |  | 
C#CCOCN1c2ccccc2C(=O)N(Cc2ccccc2)S1(=O)=O | > 50 | > 50 | 8.4 (≈ 23.6 µM) | 11 (≈ 30.9 µM) | > 5 | > 5 |  | > 8 | > 8 | 23 (≈ 64.5 µM)
O=C(OCCOCN1c2ccccc2C(=O)N(Cc2ccccc2)S1(=O)=O)c1ccccc1 | 24 (≈ 51.4 µM) | 24 (≈ 51.4 µM) | 12 (≈ 25.7 µM) | 12 (≈ 25.7 µM) | > 12 | > 12 |  | 79.3 (≈ 170 µM) | > 86 | > 125
O=C1c2ccccc2N(COCc2ccccc2)S(=O)(=O)N1Cc1ccccc1 | > 50 | > 50 | 11 (≈ 26.9 µM) | 12 (≈ 29.4 µM) | 11 (≈ 26.9 µM) | 13 (≈ 31.8 µM) |  | > 8 | > 8 | 25 (≈ 61.2 µM)
Nc1nc2c(ncn2COC(CO)CO)c(=O)[nH]1 [GANCICLOVIR] |  | > 50 | 1.2 (≈ 4.7 µM) | 1.3 (≈ 5.09 µM) |  |  |  |  |  | 
